Measured values from PubChem BioAssay (NCI).
Several values for one entry are separate records, joined by “and”; a condition that tells them apart may be missing. Equal entries are not always repeated.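 Cultured in 96-well plates, cells were exposed to test compound for 48 hours across five concentrations. Abbreviation: GI50, concentration required for 50% inhibition of growth. TGI denotes the concentration required for complete inhibition of growth.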

Tests used:
Experiment in all cases: DTP human tumour cell line panel, 48 h
UO-31 renal = tested on: UO-31 renal
K-562 leukemia = tested on: K-562 leukemia
A549 NSCLC = tested on: A549 NSCLC
HS 578T breast = tested on: HS 578T breast
MALME-3M melanoma = tested on: MALME-3M melanoma
MOLT-4 leukemia = tested on: MOLT-4 leukemia
HOP-92 NSCLC = tested on: HOP-92 NSCLC
LXFL 529 NSCLC = tested on: LXFL 529 NSCLC
DMS 273 small cell lung = tested on: DMS 273 small cell lung
DMS 114 small cell lung = tested on: DMS 114 small cell lung
HOP-18 NSCLC = tested on: HOP-18 NSCLC

Compound	GI50 (UO-31 renal) [µM]	TGI (UO-31 renal)	GI50 (K-562 leukemia) [µM]	TGI (K-562 leukemia)	GI50 (A549 NSCLC) [µM]	TGI (A549 NSCLC)	GI50 (HS 578T breast) [µM]	TGI (HS 578T breast) [µM]	GI50 (MALME-3M melanoma) [µM]	TGI (MALME-3M melanoma)	GI50 (MOLT-4 leukemia) [µM]	TGI (MOLT-4 leukemia)	GI50 (HOP-92 NSCLC) [µM]	TGI (HOP-92 NSCLC) [µM]	TGI (LXFL 529 NSCLC)	TGI (DMS 273 small cell lung) [µM]	TGI (DMS 114 small cell lung) [µM]	TGI (HOP-18 NSCLC)	GI50 (HOP-18 NSCLC) [µM]	GI50 (LXFL 529 NSCLC) [µM]
CN(C)CCCOc1ccc(NC2=C(Cl)C(=O)C(Nc3ccc(OCCCN(C)C)cc3)=C(Cl)C2=O)cc1	1.1	2.44 µM	0.276	0.798 µM	0.731	2.12 µM	1.59	4.2	0.336	0.935 µM	0.325	2.38 µM	0.567	1.08						
Oc1cn(-c2ccc(Cl)cc2)nc1-c1n[nH]c(=S)n1-c1ccc(F)cc1	25	> 100 µM	12.6	> 100 µM	13.2	56 µM	29.1	> 100	25.9	> 100 µM	14.7	> 100 µM	32.2	> 100						
COC(=O)C1CCC(C)CC1=O (stereo not drawn)		> 100 µM		> 100 µM		> 100 µM				> 100 µM		> 100 µM		> 100	> 100 µM	> 100	> 100			
C[n+]1cn(CC(=O)c2ccccc2)c(C(N)=O)c1N		> 100 µM				> 100 µM				> 100 µM		> 100 µM		> 100	> 100 µM	> 100	64.6	> 100 µM		
OCc1ccc(-c2ccc(-c3ccc(CO)o3)o2)o1	> 100	> 100 µM	> 100	> 100 µM	> 100	> 100 µM	> 31.2	> 62.6	8.22	69.6 µM	> 100	> 100 µM	> 49.6	> 100						
C/C(=N\NC(=S)N1CCC1)c1ccccn1	0.0188	15.3 µM	0.00393	> 100 µM	0.0527	37.5 µM		> 100	0.0101	7.65 µM	0.00601	> 10.5 µM	0.0351	47.9	> 100 µM	1.82		> 100 µM		
CCCCCCCCCCCCCC(=O)O[C@H]1CC[C@H](NC(=O)[C@H](OC)[C@H](O)[C@@H](O)[C@H](O)/C=C/C(C)C)C(=O)N(C)C1	0.0283	15 µM and 8.93 µM	0.00238	15 µM and > 23.8 µM	0.00238	15 µM and 4.49 µM			0.00717	15 µM and > 23.8 µM	0.00238	15 µM and 5.24 µM		0.0541	15 µM and 3.94 µM	0.00403	0.817	15 µM and > 23.8 µM	11.3	0.00238
CC(C)N(C(=O)C12C3C4C1C1C4(C#N)C3C12C(=O)O)C(C)C (stereo not drawn)		> 100 µM		> 100 µM		> 100 µM				> 100 µM		> 100 µM		> 100	> 100 µM	> 100	> 100	> 100 µM		
COc1ccc(/C=C/C(=O)c2c(-c3ccccc3)nn(C)c(=O)c2N2CCCCC2)cc1		34.7 µM		63 µM		> 100 µM						23.1 µM		16.8	98.8 µM	> 100	78.4	73.9 µM		
Cc1ccc(C(=O)Nc2ccc(Oc3cc4cnn(C)c4cc3-c3cn[nH]c3)c(F)c2)c(=O)n1-c1ccc(F)cc1	> 100	> 100 µM	5.75	> 100 µM	7.6	> 100 µM	7.35	> 100	3.35	> 100 µM	> 100	> 100 µM	2.34	> 100						
N#Cc1c(-c2ccccc2)c(-c2ccccc2)cc2c(=O)c3ccc(Cl)cc3[nH]c12		> 100 µM				> 100 µM				> 100 µM		> 100 µM		> 100	> 100 µM	> 100		> 100 µM		
OC1=CN=C(c2ccccc2)Oc2ccccc21		> 100 µM		> 100 µM		> 100 µM				> 100 µM		> 100 µM		> 100	> 100 µM	> 100	> 100			
CCOC(=O)[C@@H](C)C[C@H](Cc1ccccc1)NC(=O)c1csc([C@@H](C[C@H](C(C)C)N(C)C(=O)CNC(=O)[C@H]2CCCCN2C)OC(C)=O)n1	5.07	> 14.3 µM	0.358	> 14.3 µM	3.49	> 14.3 µM	1.5	> 8.43	0.601	> 14.3 µM	3.12	> 14.3 µM	0.254	2.63						
O=C1C2C(C(=O)N1Cc1ccccc1)N(Cc1ccccc1)C(=O)N2Cc1ccccc1 (stereo not drawn)		> 100 µM		> 100 µM		> 100 µM				> 100 µM		> 100 µM		> 100	> 100 µM		> 100			
O=C1OC(=O)c2c1nc1ccccc1c2-c1ccccc1		> 100 µM		> 100 µM		> 100 µM				> 100 µM		> 100 µM		> 100	> 100 µM	> 100	> 100	> 100 µM		
COC(=O)c1ccc(NC(N)=NCCC(C)(C)c2ccc(C(F)(F)F)cc2)nc1	2.9	15.6 µM	1.3	3.72 µM	4.83	17.2 µM	2.98	9.9	1.7	3.37 µM	1.88	7.33 µM	5.54	23.8						
NC1=NC(c2ccccc2Cl)c2c(n[nH]c2N)N1 (stereo not drawn)	9.21	> 100 µM	4.52	> 100 µM	6.96	> 100 µM	> 100	> 100	61.3	> 100 µM	22.5	> 100 µM	18.2	> 100						
